Literature values in patent US5298246A, “Stable pharmaceutical composition and method for its production” (Kanegafuchi Kagaku Kogyo Kabushiki Kaisha, priority 1991, dated 1994).

absorbability upon oral administration: low
Compound: COC1=C(OC)C(=O)C(C/C=C(\C)CC/C=C(\C)CC/C=C(\C)CC/C=C(\C)CC/C=C(\C)CC/C=C(\C)CC/C=C(\C)CC/C=C(\C)CC/C=C(\C)CCC=C(C)C)=C(C)C1=O [ubidecarenone]
